# Assay results as given in ChEMBL document CHEMBL6103648, “AI-Driven Discovery of Highly Specific and Efficacious hCES2A Inhibitors for Ameliorating Irinotecan-Triggered Gut Toxicity” (J Med Chem, 2025).
# Active and inactive are the calls of the source. The calls are words filed in the database; no cut-off is given here.
# Experiments:
# Homo sapiens = organism: Homo sapiens; experiment: Inhibition of human CES2A assessed as decrease in residual activity upto 1.6 nM; conditions: time <= 30.0 min
# [1] = Inhibition of human CES1A using NLMe as substrate incubated for 3 mins by chemiluminescence analysis
# Cholinesterase = Cholinesterase (Homo sapiens, UniProt P06276); experiment: Inhibition of human BuChE using BTCI as substrate incubated for 3 mins by Ellman's method
# Caco-2 = experiment: Cytotoxicity against human Caco-2 cells at 100 uM incubated for 24 hrs by CCK8 assay; format: toxicity, cell-based; conditions: caco-2, 24 h
# [2] = Permeability across apical to basal side in human Caco-2 cells assessed as cumulative penetration amount at 25 uM incubated for 120 mins by UPLC-MS/MS analysis; format: ADME, cell-based; conditions: caco-2, 2 h
# [3] = Permeability across basal to apical side in human Caco-2 cells assessed as cumulative penetration amount at 25 uM incubated for 120 mins by UPLC-MS/MS analysis; format: ADME, cell-based; conditions: caco-2, 2 h
# [4] = Apparent permeability across apical to basal side in human Caco-2 cells at 25 uM incubated for 120 mins by UPLC-MS/MS analysis; format: ADME, cell-based
# [5] = Apparent permeability across apical to basal side in human Caco-2 cells at 50 uM incubated for 120 mins by UPLC-MS/MS analysis; format: ADME, cell-based
# [6] = Efflux ratio of apparent permeability across basal to apical side over apical to basal side in human Caco-2 cells at 50 uM incubated for 120 mins by UPLC-MS/MS analysis; format: ADME, cell-based
# HepG2 = experiment: Cytotoxicity against human HepG2 cells at <20 uM; format: toxicity, cell-based; conditions: hepg2, 20 µM
# Cytochrome P450 1A2 = molecular target: T1, Cytochrome P450 1A2 (Homo sapiens, UniProt P05177); experiment: Inhibition of CYP1A2 in human liver microsomes using phenacetin as substrate upto 10 uM; format: ADME, Microsome
# T1 sequence (P05177 whole entry): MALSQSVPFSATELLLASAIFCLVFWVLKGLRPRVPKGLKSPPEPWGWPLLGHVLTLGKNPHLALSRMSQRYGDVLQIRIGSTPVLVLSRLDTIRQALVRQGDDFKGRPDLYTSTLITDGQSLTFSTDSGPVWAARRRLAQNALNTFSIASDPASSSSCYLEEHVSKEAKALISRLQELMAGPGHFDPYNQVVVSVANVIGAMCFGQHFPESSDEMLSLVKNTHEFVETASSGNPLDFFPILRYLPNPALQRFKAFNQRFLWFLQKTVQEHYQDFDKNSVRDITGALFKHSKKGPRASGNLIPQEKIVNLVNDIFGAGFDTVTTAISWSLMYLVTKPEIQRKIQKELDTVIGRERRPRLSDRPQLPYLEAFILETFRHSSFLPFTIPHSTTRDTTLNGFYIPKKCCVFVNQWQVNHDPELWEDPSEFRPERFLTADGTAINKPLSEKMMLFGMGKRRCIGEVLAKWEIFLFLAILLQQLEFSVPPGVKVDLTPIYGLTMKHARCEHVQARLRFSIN
# Cytochrome P450 2C19 = Cytochrome P450 2C19 (Homo sapiens, UniProt P33261); experiment: Inhibition of CYP2C19 in human liver microsomes using omeprazole as substrate upto 10 uM; format: ADME, Microsome
# Cytochrome P450 2D6 = Cytochrome P450 2D6 (Homo sapiens, UniProt P10635); experiment: Inhibition of CYP2D6 in human liver microsomes using dextromethorphan as substrate upto 10 uM; format: ADME, Microsome
# [7] = Sub-acute toxicity in C57BL/6J mouse assessed as body weight change at 100 mg/kg/day, po treated for 14 days consecutively; format: organism-based; conditions: in vivo, 336 h, time 14 day
# [8] = Sub-acute toxicity in C57BL/6J mouse assessed as abnormality in heart at 100 mg/kg/day, po treated for 14 days consecutively by H and E staining based analysis; format: organism-based; conditions: in vivo, 336 h, time 14 day
# [9] = Sub-acute toxicity in C57BL/6J mouse assessed as abnormality in liver at 100 mg/kg/day, po treated for 14 days consecutively by H and E staining based analysis; format: organism-based; conditions: in vivo, 336 h, time 14 day
# [10] = Sub-acute toxicity in C57BL/6J mouse assessed as abnormality in spleen at 100 mg/kg/day, po treated for 14 days consecutively by H and E staining based analysis; format: organism-based; conditions: in vivo, 336 h, time 14 day
# [11] = Sub-acute toxicity in C57BL/6J mouse assessed as abnormality in stomach at 100 mg/kg/day, po treated for 14 days consecutively by H and E staining based analysis; format: organism-based; conditions: in vivo, 336 h, time 14 day
# [12] = Sub-acute toxicity in C57BL/6J mouse assessed as change in ALB level at 100 mg/kg/day, po treated for 14 days consecutively; format: organism-based; conditions: in vivo, 336 h, time 14 day
# [13] = Sub-acute toxicity in C57BL/6J mouse assessed as change in UREA level at 100 mg/kg/day, po treated for 14 days consecutively; format: organism-based; conditions: in vivo, 336 h, time 14 day
# [14] = Sub-acute toxicity in C57BL/6J mouse assessed as change in CREA level at 100 mg/kg/day, po treated for 14 days consecutively; format: organism-based; conditions: in vivo, 336 h, time 14 day
# [15] = Drug distribution in duodenum of C57BL/6J mouse at 100 mg/kg, po administered as single dose measured for 0.5 to 3 hrs by UHPLC-Q-Orbitrap HRMS analysis; format: ADME, organism-based; conditions: in vivo, time 0.5-3 hrs
# [16] = Drug distribution in jejunum of C57BL/6J mouse at 100 mg/kg, po administered as single dose measured for 0.5 to 3 hrs by UHPLC-Q-Orbitrap HRMS analysis; format: ADME, organism-based; conditions: in vivo, time 0.5-3 hrs
# [17] = Drug distribution in deep organs of C57BL/6J mouse at 100 mg/kg, po administered as single dose measured for 0.5 to 3 hrs by UHPLC-Q-Orbitrap HRMS analysis; format: ADME, organism-based, Deep organ; conditions: in vivo, time 0.5-3 hrs
# Mus musculus [18] = experiment: Inhibition of irinotecan-triggered gut toxicity in C57BL/6J mouse bearing tumor cells assessed as intact structures in colon tissue at 25 to 50 mg/kg/day, po treated for 14 days by H and E staining based analysis; format: functional, organism-based; conditions: dose 25-50 mg/kg/day, time 14.0 day
# Mus musculus [19] = experiment: Inhibition of irinotecan-triggered gut toxicity in C57BL/6J mouse bearing tumor cells assessed as increase in occludin level in colon tissue at 25 to 50 mg/kg/day, po treated for 14 days by immunofluorescence based analysis; format: functional, organism-based; conditions: dose 25-50 mg/kg/day, time 14.0 day
# Mus musculus [20] = experiment: Inhibition of irinotecan-triggered gut toxicity in C57BL/6J mouse bearing tumor cells assessed as decrease in SN38 level in colon tissue at 25 to 50 mg/kg/day, po treated for 14 days; format: functional, organism-based; conditions: dose 25-50 mg/kg/day, time 14.0 day
# Mus musculus [21] = experiment: Inhibition of irinotecan-triggered gut toxicity in C57BL/6J mouse bearing tumor cells assessed as decrease in serum ALT level at 25 to 50 mg/kg/day, po treated for 14 days; format: functional, organism-based; conditions: dose 25-50 mg/kg/day, time 14.0 day
# Mus musculus [22] = experiment: Inhibition of irinotecan-triggered gut toxicity in C57BL/6J mouse bearing tumor cells assessed as decrease in serum UREA level at 25 to 50 mg/kg/day, po treated for 14 days; format: functional, organism-based; conditions: dose 25-50 mg/kg/day, time 14.0 day
# Mus musculus [23] = experiment: Inhibition of irinotecan-induced anti-tumor activity in C57BL/6J mouse bearing tumor cells assessed as increase in tumor volume at 25 to 50 mg/kg/day, po treated for 14 days; format: functional, organism-based; conditions: dose 25-50 mg/kg/day, time 14.0 day
# Mus musculus [24] = experiment: Inhibition of irinotecan-induced anti-tumor activity in C57BL/6J mouse bearing tumor cells assessed as increase in tumor weight at 25 to 50 mg/kg/day, po treated for 14 days; format: functional, organism-based; conditions: dose 25-50 mg/kg/day, time 14.0 day
# Chain of Cytochrome P450 2D6 (P10635 whole entry): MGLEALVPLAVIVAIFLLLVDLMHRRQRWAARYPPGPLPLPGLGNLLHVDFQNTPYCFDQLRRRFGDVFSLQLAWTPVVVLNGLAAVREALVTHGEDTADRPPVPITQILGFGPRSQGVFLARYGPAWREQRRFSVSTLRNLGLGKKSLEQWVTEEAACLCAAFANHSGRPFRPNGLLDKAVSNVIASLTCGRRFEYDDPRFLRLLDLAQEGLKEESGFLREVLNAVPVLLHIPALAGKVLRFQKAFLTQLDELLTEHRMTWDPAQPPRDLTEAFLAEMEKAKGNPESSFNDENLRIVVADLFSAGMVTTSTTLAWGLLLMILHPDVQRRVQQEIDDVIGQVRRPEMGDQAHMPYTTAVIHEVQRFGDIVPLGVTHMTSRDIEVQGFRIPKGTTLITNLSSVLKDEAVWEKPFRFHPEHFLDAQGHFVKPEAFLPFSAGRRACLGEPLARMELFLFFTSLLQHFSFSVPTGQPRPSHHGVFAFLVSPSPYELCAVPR
# Chain of Cytochrome P450 2C19 (P33261 whole entry): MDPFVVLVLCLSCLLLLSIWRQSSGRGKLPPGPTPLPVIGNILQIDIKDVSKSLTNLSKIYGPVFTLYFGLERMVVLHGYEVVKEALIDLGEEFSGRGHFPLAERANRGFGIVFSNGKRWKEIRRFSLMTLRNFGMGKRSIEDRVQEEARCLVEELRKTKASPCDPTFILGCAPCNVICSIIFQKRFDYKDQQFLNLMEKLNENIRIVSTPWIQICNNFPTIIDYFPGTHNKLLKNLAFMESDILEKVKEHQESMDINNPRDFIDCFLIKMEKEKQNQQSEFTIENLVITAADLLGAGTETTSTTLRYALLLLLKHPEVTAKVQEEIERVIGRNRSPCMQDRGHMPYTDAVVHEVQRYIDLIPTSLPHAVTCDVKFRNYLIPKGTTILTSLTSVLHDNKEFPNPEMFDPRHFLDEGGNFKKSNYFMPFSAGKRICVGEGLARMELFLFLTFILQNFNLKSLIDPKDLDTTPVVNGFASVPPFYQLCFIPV
# Chain of Cholinesterase (P06276 whole entry): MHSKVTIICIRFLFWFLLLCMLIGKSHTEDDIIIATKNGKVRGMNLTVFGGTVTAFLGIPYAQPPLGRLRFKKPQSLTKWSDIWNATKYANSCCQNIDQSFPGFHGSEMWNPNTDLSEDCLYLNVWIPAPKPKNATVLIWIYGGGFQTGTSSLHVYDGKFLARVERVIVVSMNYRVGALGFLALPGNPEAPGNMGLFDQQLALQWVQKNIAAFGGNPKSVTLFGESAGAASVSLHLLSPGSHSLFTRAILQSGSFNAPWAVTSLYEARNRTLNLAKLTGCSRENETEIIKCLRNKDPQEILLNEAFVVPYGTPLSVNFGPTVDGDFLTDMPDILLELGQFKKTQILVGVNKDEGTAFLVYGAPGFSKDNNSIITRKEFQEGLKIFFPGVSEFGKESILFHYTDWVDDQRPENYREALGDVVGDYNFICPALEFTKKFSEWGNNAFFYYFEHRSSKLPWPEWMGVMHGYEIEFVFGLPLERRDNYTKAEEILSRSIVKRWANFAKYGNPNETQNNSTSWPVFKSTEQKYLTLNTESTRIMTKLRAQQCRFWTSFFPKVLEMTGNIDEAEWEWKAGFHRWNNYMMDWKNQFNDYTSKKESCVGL
smiles,measurement,setting,value
CCN(C)C(=O)Oc1ccc(C(=O)N2CCC(Cc3ccccc3)CC2)cc1OC,inhibition,Homo sapiens,Time-dependent-effect
same,IC50,[1],4.4 µM
same,IC50,Cholinesterase,3.06 µM
same,Activity,Caco-2,Non-toxic
same,Activity,[2],3.17 µM
same,Activity,[3],2.03 µM
same,"Papp A→B at 2 h, 25 µM",[4],15.7 ×10⁻⁶ cm/s
same,"Papp A→B at 2 h, 50 µM",[5],15.6 ×10⁻⁶ cm/s
same,"efflux ratio at 2 h, 50 µM",[6],0.67
same,Activity,HepG2,Non-toxic
same,inhibition (INH),Cytochrome P450 1A2,Not_active
same,inhibition (INH),Cytochrome P450 2C19,Not_active
same,inhibition (INH),Cytochrome P450 2D6,Not_active
same,Activity,[7],Non-toxic
same,Activity,[8],Non-toxic
same,Activity,[9],Non-toxic
same,Activity,[10],Non-toxic
same,Activity,[11],Non-toxic
same,Activity,[12],Non-toxic
same,Activity,[13],Non-toxic
same,Activity,[14],Non-toxic
same,Drug uptake,[15],Active
same,Drug uptake,[16],Active
same,Drug uptake,[17],Not_active
same,inhibition,Mus musculus [18],Active
same,inhibition,Mus musculus [19],Active
same,inhibition,Mus musculus [20],Active
same,inhibition,Mus musculus [21],Active
same,inhibition,Mus musculus [22],Active
same,inhibition,Mus musculus [23],inactive
same,inhibition,Mus musculus [24],inactive
